# From patent US20040127518A1, “Modulation of anxiety through blockade of anandamide hydrolysis” (priority 2002, published 2004)
# How the values were obtained:
# rat cortical neurons = test: Transport, accumulation and release of non-metabolized [3H]anandamide in cortical neurons; type: cell-based
# [1] = Food intake in free-feeding rats; type: in vivo, rat; details: UCM532 10 mg kg-1 i.p.; UCM597 0.3 mg kg-1 i.p.; data not shown
# Protocol: We recorded food intake in free-feeding rats by using an automated system (Scipro Inc., New York). Rats were acclimated to the test cages for three days prior to the tests. Each test began at the onset of the dark phase and lasted for 24 hours.
# Mouse formalin test = type: in vivo; details: dose not stated, data not shown
# Protocol: We dissolved FAAH inhibitors in polyethyleneglycol/water (1/1) and rimonabant in saline. Formalin and hot-plate assays were carried out in the mouse, as described (Beltramo, M. et al., FEBS Lett., 403, 263-267 (1997)).
# The compounds exerted, however, moderate antinociceptive effects in two models of acute pain.
# Elevated zero maze test = type: in vivo, rat; details: adult rats; i.p. 30 min before test; UCM532 5 and 10 mg kg-1; UCM597 0.05-0.1 mg kg-1
# Protocol: We dissolved FAAH inhibitors and rimonabant in dimethylsulfoxide (DMSO)/saline (7/3 and 9/1, respectively); we administered FAAH inhibitors by i.p. injection 30 min before tests and rimonabant 30 min before UCM532. The elevated zero maze was comprised of a black Perspex annular platform (105 cm diameter, 10 cm width) elevated to 65 cm above ground level, divided equally into four quadrants (Bickerdike, M. J. et al., Eur. J. Pharmacol., 271, 403-411 (1994); Shepherd, J. K. et al., Psychopharmacology, 116, 56-64 (1994)). […] We placed the rats in a closed quadrant and video recorded them for 5-min periods, thoroughly cleaning the maze between sessions. […] Results are expressed as percent time in open quadrant/total time (percent time open). Results were analyzed by one-way ANOVA followed by Tukey's test. We recorded motor activity of each rat in an Opto-Varimex cage (Columbus Instruments, Columbus, Ohio) linked on-line to a computer and placed in a sound-attenuated room illuminated by a 20-W white light. The amount of time spent in ambulatory activity was analyzed using an Auto-Track software (Columbus Instruments, Columbus, Ohio) as described elsewhere (Ali, M. M. et al., Neurosci. Lett., 284, 57-60 (2000); Wedzony, K. et al., Neuropsychopharmacology, 23, 547-559 (2000)). […] We analyzed data by overall one-way ANOVA followed by Tukey's test for individual between-group comparisons. […]
# [2] = biological target: T1, electric eel acetylcholinesterase (Electrophorus electricus, UniProt O42275)
# T1 sequence (O42275 whole entry): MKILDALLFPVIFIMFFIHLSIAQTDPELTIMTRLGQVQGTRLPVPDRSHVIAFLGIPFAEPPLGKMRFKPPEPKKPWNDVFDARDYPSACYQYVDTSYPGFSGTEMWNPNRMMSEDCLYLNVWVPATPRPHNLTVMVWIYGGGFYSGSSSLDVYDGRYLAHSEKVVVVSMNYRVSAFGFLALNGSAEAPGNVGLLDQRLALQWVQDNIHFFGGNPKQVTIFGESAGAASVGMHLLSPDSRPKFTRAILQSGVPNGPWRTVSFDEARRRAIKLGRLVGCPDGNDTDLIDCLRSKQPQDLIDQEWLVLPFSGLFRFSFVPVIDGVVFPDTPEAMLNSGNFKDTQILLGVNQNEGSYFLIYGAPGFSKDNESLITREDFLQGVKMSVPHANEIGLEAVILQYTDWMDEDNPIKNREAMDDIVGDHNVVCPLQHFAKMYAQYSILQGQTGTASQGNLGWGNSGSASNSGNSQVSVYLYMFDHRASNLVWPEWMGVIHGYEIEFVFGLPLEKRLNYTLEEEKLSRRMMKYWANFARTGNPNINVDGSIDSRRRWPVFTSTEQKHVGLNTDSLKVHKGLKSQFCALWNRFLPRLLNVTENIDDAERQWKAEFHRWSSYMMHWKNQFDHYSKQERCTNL
# Source text: (§1) We prepared cell fractions from rat brain homogenates, and assayed membrane FAAH activity and cytosol MGL activity using anandamide [ethanolamine-3H] (American Radiolabeled Chemicals, ARC (St. Louis Mo.), 60 Ci/mmol) and 2-mono-oleoyl-glycerol-[glycerol-1,2,3^−3H] (ARC, St. Louis Mo., 20 Ci/mmol), respectively, as substrates (Dinh, T. Proc. Natl. Acad. Sci. U.S.A. (2002)). We conducted [^3H]anandamide transport assays in human astrocytoma cells (Piomelli, D. et al., Proc. Natl. Acad. Sci. U.S.A., 96, 5802-5807 (1999)); CB1 and CB2 binding assays in rat cerebellar membranes and CB2-overexpressing Chinese hamster ovary cells (Receptor Biology-Perkin Elmer, Wellesley, Mass.), respectively, using [^3H]WIN-55212-2 (NEN-Dupont, Boston, Mass., 40-60 Ci/mmol) as a ligand (Devane, W. A. et al. Science, 258, 1946-1949 (1992)); cholinesterase assays with a commercial kit (Sigma, St. Louis, Mo.), using purified enzymes (electric eel acetylcholinesterase type V-S and horse serum cholinesterase; both from Sigma, St. Louis, Mo.) and following manufacturer's instructions.
# [3] = biological target: T1, electric eel acetylcholinesterase; test: biochemical
# Source text: as §1
# [4] = biological target: horse plasma butyryl cholinesterase (Equus caballus, UniProt P81908); test: Cholinesterase assay with commercial kit, purified enzyme
# Sequence of horse plasma butyryl cholinesterase (P81908 whole entry): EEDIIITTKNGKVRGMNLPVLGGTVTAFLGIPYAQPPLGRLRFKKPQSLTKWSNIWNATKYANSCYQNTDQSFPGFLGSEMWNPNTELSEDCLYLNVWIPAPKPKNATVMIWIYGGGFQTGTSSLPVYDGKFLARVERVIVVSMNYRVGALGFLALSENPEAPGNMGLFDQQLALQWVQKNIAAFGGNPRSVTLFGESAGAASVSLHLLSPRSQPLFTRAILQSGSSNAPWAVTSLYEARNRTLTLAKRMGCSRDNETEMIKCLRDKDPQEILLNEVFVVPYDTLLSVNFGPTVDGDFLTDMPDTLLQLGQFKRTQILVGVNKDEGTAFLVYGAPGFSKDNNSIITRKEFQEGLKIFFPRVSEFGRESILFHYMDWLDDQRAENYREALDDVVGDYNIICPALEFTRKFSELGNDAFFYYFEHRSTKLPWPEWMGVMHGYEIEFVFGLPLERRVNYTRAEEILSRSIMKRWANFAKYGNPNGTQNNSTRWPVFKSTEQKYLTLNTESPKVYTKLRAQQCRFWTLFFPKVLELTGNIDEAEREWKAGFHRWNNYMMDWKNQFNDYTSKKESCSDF
# Source text: as §1
# [5] = biological target: T2, rat brain monoglyceride lipase (MGL) (Rattus norvegicus, UniProt Q8R431); test: Cytosol MGL activity, 2-mono-oleoyl-glycerol as substrate
# T2 sequence (Q8R431 1-303): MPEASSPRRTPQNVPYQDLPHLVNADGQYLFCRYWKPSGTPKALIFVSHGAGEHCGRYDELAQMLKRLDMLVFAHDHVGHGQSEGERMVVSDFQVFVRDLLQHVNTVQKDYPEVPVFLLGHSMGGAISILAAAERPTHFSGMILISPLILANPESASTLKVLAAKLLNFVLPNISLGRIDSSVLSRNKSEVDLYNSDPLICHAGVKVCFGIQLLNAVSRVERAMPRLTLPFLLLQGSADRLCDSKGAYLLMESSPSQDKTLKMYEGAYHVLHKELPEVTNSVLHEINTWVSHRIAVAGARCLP
# Source text: as §1
# CB2 receptor = CB2 receptor (Homo sapiens, UniProt P34972); test: CB2 binding assay in CB2-overexpressing Chinese hamster ovary cells, [3H]WIN-55212-2
# Sequence of CB2 receptor (P34972 whole entry): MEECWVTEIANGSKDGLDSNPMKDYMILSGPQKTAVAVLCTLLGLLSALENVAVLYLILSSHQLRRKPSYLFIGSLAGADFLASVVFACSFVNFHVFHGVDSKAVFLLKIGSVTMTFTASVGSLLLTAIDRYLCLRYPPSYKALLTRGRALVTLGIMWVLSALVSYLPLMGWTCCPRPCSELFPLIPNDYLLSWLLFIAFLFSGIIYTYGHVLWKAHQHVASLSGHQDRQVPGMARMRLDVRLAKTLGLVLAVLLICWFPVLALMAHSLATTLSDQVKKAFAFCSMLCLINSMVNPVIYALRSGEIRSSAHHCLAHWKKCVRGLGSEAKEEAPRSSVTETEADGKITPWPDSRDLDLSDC
# Source text: as §1
structure (smiles),measurement,setting,value
"CCCCNC(=O)Oc1ccc(OCc2ccccc2)cc1 [UCM532, n-Butylcarbamic acid 4-benzyloxyphenyl ester]",accumulation of non-metabolized [3H]anandamide in neurons,"rat cortical neurons; 4-min incubation, UCM532 3 μM, UCM597 10 nM, AM404 10 μM",promote accumulation
same,carrier-mediated uptake of [3H]anandamide,rat cortical neurons; rat cortical neurons,without reducing
same,hyperphagia (increased food intake),[1],no
same,"antinociceptive effect, formalin test, compared with UCM597",Mouse formalin test,"mimicked, albeit less effectively"
same,"percent time open, elevated zero maze",Elevated zero maze test,anxiolytic-like responses
same,effect on acetylcholinesterase activity (in words),[2],did not affect
same,AChE: maximal concentration of FAAH inhibitor tested,[2]; Table 2,>100 µM
same,IC50,[3],> 30 µM
same,effect on butyryl cholinesterase activity (in words),[4],did not affect
same,BCh SI (maximal concentration tested/IC50 for FAAH),[4]; Table 2,≧333
same,BCh: maximal concentration of FAAH inhibitor tested,[4]; Table 2,>100 µM
same,effect on MGL activity (in words),[5],did not affect
same,MGL SI (maximal concentration tested/IC50 for FAAH),[5]; Table 2,≧100
same,MGL: maximal concentration of FAAH inhibitor tested,[5]; Table 2,>30 µM
same,effect on binding of a high-affinity ligand to CB2 (in words),CB2 receptor,no effect
same,CB2: maximal concentration of FAAH inhibitor tested,CB2 receptor; Table 2,>300 µM
same,CB2 SI (maximal concentration tested/IC50 for FAAH),CB2 receptor; Table 2,≧1000
